# Measured values: patent US20170157001A1, “Compositions Comprising Strontium and Uses Thereof in the Treatment or Prevention of Gingivitis, Periodontitis, Periodontitis as a Manifestation of Systemic Diseases, and Necrotizing Periodontal Diseases” (priority 2006, published 2017)
# How the values were obtained:
# [1] = relative to cholecalciferol itself; cited from earlier work
# [2] = Determination of solubility velocity by ICP-MS in 0.1 M hydrochloride solution; conditions: in hydrochloride 0.1 M, 37° C., 84Sr signal
# Description: Determination of solubility velocity by Inductively Coupled Plasma-Mass Spectrometry (ICP-MS)
# The solubility is measures as strontium signals over time using ICP-MS. Using this technique it is possible to follow multiple isotopes of the element, here, ^84Sr, ^86Sr, ^87Sr and ^88Sr.
# A hydrochloride solution (0.1 M) was added to the sample and the sample then immediately enters, by means of a peristaltic pump, the atomizer of the ICP-MS apparatus. The pump speed was 4.4 ml/min. […] The temperature of the HCl solution was 37° C.
# The solubility velocity of the compound is obtained by analysing the slopes of the front curves. The first curve represents the experiment and the second curve the apparatus, thus the difference between the slopes of the two curves are used to calculate the solubility velocity by division with the top value.
solubility velocity [2],SMILES,times more effective in terms of bioavailability than cholecalciferol [1]
–,C=C1CC[C@H](O)C/C1=C/C=C1\CCC[C@]2(C)[C@@H]([C@H](C)CCCC(C)(C)O)CC[C@@H]12 [25-hydroxycholecalciferol],five
–,"C=C1/C(=C\C=C2/CCC[C@]3(C)[C@@H]([C@H](C)CCCC(C)(C)O)CC[C@@H]23)C[C@@H](O)C[C@@H]1O [1,25 dihydroxycholecalciferol]",ten
very high,[Cl-].[Cl-].[Sr+2] [strontium chloride],–
